Data: ChEMBL document CHEMBL5661943, “ASAP - In vitro antiviral effect” (2024)
Where “and” joins values, the source holds several entries; their conditions need not be identical. Equal entries are not always repeated.

Experiments:
[1] = system: Zika virus; assay: EC50 is reported via analysis of immunofluorescence staining. The assay has been performed by Icahn School of Medicine at Mount Sinai.; type: functional, organism-based, Chlorocebus sabaeus, VeroE6/TMPRSS2
[2] = system: dengue virus type 2; assay: (§1) Functional immunofluorescence assay to measure dose dependent changes in antiviral-drug inhibitory efficacy against Dengue virus type 2 Thailand/16681/84 in Vero E6/TMPRSS2 cells (cotreated with P-gp inhibitor, Elacridar). Cells are treated with antiviral candidates that are serially diluted, following infection, cells are fixed. EC50 is reported via analysis of immunofluorescence staining. The assay has been performed by Icahn School of Medicine at Mount Sinai.; type: organism-based, Chlorocebus sabaeus, VeroE6/TMPRSS2; settings: for EC90: Baseline response 0 %, P-gp concentration 2 uM, P-gp inhibitor Elacidar
[3] = system: Zika virus; assay: as §1, with “Zika” for “Dengue”, “PRVABC59” for “type 2 Thailand/16681/84”, “cells.” for “cells (cotreated with P-gp inhibitor, Elacridar).”; type: organism-based, Chlorocebus sabaeus; settings: for EC50: VeroE6/TMPRSS2
[4] = system: dengue virus type 2; assay: as §1, with “cells.” for “cells (cotreated with P-gp inhibitor, Elacridar).”; type: organism-based, Chlorocebus sabaeus
[5] = system: dengue virus type 2; assay: Functional CPE-based assay to measure dose dependent changes in antiviral-drug inhibitory efficacy against Dengue virus type 2 New Guinea C in Huh7 cells. Cells are treated with antiviral candidates that are serially diluted. EC50 is reported via analysis of MTT/MTS assay as a readout of CPE. The assay has been performed by National Institute of Allergy and Infectious Diseases.; type: organism-based, Homo sapiens; settings: Huh-7
[6] = system: Zika virus; assay: (§2) Functional CPE-based assay to measure dose dependent changes in antiviral-drug inhibitory efficacy against Zika virus MR766 in Vero E6 miRFP670 cells. Cells are treated with antiviral candidates that are serially diluted. EC50 is reported via analysis of MTS assay as a readout of CPE. The assay has been performed by KU Leuven.; type: organism-based, Chlorocebus sabaeus, Vero C1008; settings: Zika virus; for EC50: Vero C1008
[7] = system: dengue virus type 2; assay: Functional assay to measure dose dependent changes in antiviral-drug inhibitory efficacy against Dengue virus type 2 New Guinea C in Vero E6 miRFP670 cells (cotreated with P-gp inhibitor, CP100356). Cells are treated with antiviral candidates that are serially diluted, following infection, cells are fixed. EC50 is reported via analysis of fluorescence intensity using high-content imager. The …; type: organism-based, Chlorocebus sabaeus, Vero C1008; settings: for EC90: Baseline response 0 %, Maximum response 100 %, P-gp concentration 500 nM, P-gp inhibitor CP100356
[8] = system: Zika virus; assay: as §2, with “cells (cotreated with P-gp inhibitor, CP100356).” for “cells.”; type: organism-based, Chlorocebus sabaeus, Vero C1008; settings: Zika virus, Vero C1008

Q: With NCc1ccc(-c2ncc(OCC3CCNCC3)nc2-c2ccc(-c3ccoc3)cc2)cc1 as the compound, how does the EC50 ([1]; Zika virus, VeroE6/TMPRSS2) read?
A: 0.111 µM

Q: And the EC90 ([1]; Zika virus, VeroE6/TMPRSS2)?
A: 16.5 µM

Q: What about the EC50 ([2]; Dengue virus, VeroE6/TMPRSS2) of the same compound?
A: 1 µM

Q: And the EC90 ([2]; Dengue virus, VeroE6/TMPRSS2, Hill slope -0.497, Maximum measured 90.326 %, Maximum response 100 %, Minimum measured 29.879 %, R squared 0.819)?
A: > 16.7 µM

Q: What about the EC50 [3] of the same compound?
A: > 50 µM

Q: What about the EC90 ([3]; VeroE6/TMPRSS2, Maximum measured 394.841 %, Minimum measured 61.013 %) of the same compound?
A: > 50 µM

Q: What about the EC50 ([4]; VeroE6/TMPRSS2) of the same compound?
A: 16.1 µM

Q: And the EC90 ([4]; VeroE6/TMPRSS2, Baseline response -26.43 %, Hill slope -19.353, Maximum measured 64.866 %, Maximum response 59.51 %, Minimum measured 1.549 %, R squared 0.583)?
A: > 16.7 µM

Q: And the EC50 [5]?
A: > 5.5 µM

Q: Which EC50 ([1]; Zika virus, VeroE6/TMPRSS2) does the source give for CCCC[C@H](NC(C)=O)C(=O)N[C@H](C(=O)NCc1ccc(C(N)=O)cc1)c1ccc(OCc2ccccc2)cc1 here?
A: > 50 µM

Q: What about the EC90 ([1]; Zika virus, VeroE6/TMPRSS2, Maximum measured 173.346 %, Minimum measured 74.645 %, P-gp concentration 2 uM, P-gp inhibitor Elacidar) of the same compound?
A: > 50 µM

Q: What about the EC90 ([1]; Zika virus, VeroE6/TMPRSS2, Baseline response 0 %, Hill slope 0.304, Maximum measured 106.185 %, Maximum response 100 %, Minimum measured 70.235 %, P-gp concentration 2 uM, R squared 0.184, P-gp inhibitor Elacidar) of the same compound?
A: > 50 µM

Q: And the EC90 ([2]; Hill slope -0.583, Maximum measured 72.286 %, Maximum response 50 %, Minimum measured 22.28 %, R squared 0.087)?
A: > 50 µM

Q: And the EC90 ([2]; Dengue virus, VeroE6/TMPRSS2, Hill slope -0.364, Maximum measured 95.574 %, Maximum response 100 %, Minimum measured 8.045 %, R squared 0.69)?
A: > 50 µM

Q: And the EC50 [5]?
A: 5.3 µM

Q: Which results are given for O=C(Nc1ccc2c(c1)B(O)OC2)c1cccc(OCc2c(Cl)cccc2Cl)c1?
A: EC50 [3]: 1.09 µM; EC90 ([3]; VeroE6/TMPRSS2, Baseline response 0 %, Hill slope -0.477, Maximum measured 91.001 %, Maximum response 100 %, Minimum measured 4.308 %, R squared 0.689): > 16.7 µM; EC50 ([4]; VeroE6/TMPRSS2): 0.155 µM; EC90 ([4]; VeroE6/TMPRSS2): 0.735 µM; EC50 [5]: > 1.9 µM

Q: For CC1(C)Cc2sc(NC(=O)Cc3ccc(S(N)(=O)=O)cc3)c(C#N)c2CN1CC1CCCCC1, which EC50 [6] is on record?
A: > 50 µM

Q: And the EC90 ([6]; Vero C1008, Maximum measured -0.002 %, Minimum measured -8.758 %)?
A: > 50 µM

Q: What about the EC50 ([7]; Dengue virus, Vero C1008) of the same compound?
A: < 0.391 µM

Q: What about the EC90 ([7]; Dengue virus, Vero C1008, Hill slope -4.912, Maximum measured 6.91 %, Minimum measured 0.005 %, R squared 0.81) of the same compound?
A: < 0.391 µM

Q: And the EC50 [5]?
A: < 0.01 µM

Q: Which results are given for O=C(O)c1cc(Oc2ccc(F)cc2)c(F)cc1NS(=O)(=O)c1ccc(Oc2ccccc2Cl)cc1?
A: EC90 ([1]; Baseline response 0 %, Hill slope -0.477, Maximum measured 92.293 %, Maximum response 50 %, Minimum measured 32.859 %, P-gp concentration 2 uM, R squared 0.014, P-gp inhibitor Elacidar): > 16.7 µM; EC90 ([1]; Zika virus, VeroE6/TMPRSS2, Baseline response 0 %, Hill slope -0.324, Maximum measured 79.955 %, Maximum response 100 %, Minimum measured 28.499 %, P-gp concentration 2 uM, R squared 0.691, P-gp inhibitor Elacidar): > 16.7 µM; EC50 ([2]; Dengue virus, VeroE6/TMPRSS2): > 16.7 µM; EC90 ([2]; Dengue virus, VeroE6/TMPRSS2, Hill slope -0.235, Maximum measured 89.319 %, Maximum response 100 %, Minimum measured 56.356 %, R squared 0.164): > 16.7 µM; EC50 [5]: > 20 µM

Q: What does the source list for c1cc(C2CCN(Cc3c[nH]c4ccccc34)CC2)c2ccncc2c1?
A: EC90 ([1]; Baseline response 0 %, Hill slope -0.578, Maximum measured 88.327 %, Maximum response 100 %, Minimum measured 9.758 %, P-gp concentration 2 uM, R squared 0.671, P-gp inhibitor Elacidar): > 50 µM; EC90 ([1]; Zika virus, VeroE6/TMPRSS2): 25.3 µM; EC90 ([2]; EC90 CI (lower) 0 uM, EC90 CI (upper) 0.011 uM, Hill slope -0.624, Maximum measured 68.2 %, Maximum response 100 %, Minimum measured 5.474 %, R squared 0.683): 1.58 µM; EC90 ([2]; EC90 CI (lower) 0 uM, EC90 CI (upper) […] uM, Hill slope -0.4, Maximum measured 23.467 %, Maximum response 30 %, Minimum measured 3.547 %, R squared 0.817): 16.1 µM; EC50 ([2]; veroe6/tmprss2): 0.047 µM and < 0.023 µM; EC50 [3]: 7.01 µM; EC90 ([3]; VeroE6/TMPRSS2, Baseline response 0 %, Hill slope -0.669, Maximum measured 111.623 %, Maximum response 100 %, Minimum measured 18.809 %, R squared 0.805): > 50 µM; EC50 ([4]; VeroE6/TMPRSS2): 0.336 µM; EC90 ([4]; VeroE6/TMPRSS2, Baseline response 0 %, EC90 CI (lower) 0 uM, EC90 CI (upper) 0.803 uM, Hill slope -0.593, Maximum measured 141.896 %, Maximum response 100 %, Minimum measured 11.317 %, R squared 0.319): 13.6 µM; EC50 ([7]; Dengue virus, Vero C1008): 2.69 µM; EC90 ([7]; Dengue virus, Vero C1008, EC90 CI (lower) 0.253 uM, EC90 CI (upper) 1.159 uM, Hill slope -1.373, Maximum measured 83.881 %, Minimum measured 4.274 %, R squared 0.884): 13.3 µM; EC50 [5]: 27 µM

Q: For O=C(NCC(F)(F)F)c1cc(Cl)c(F)cc1NS(=O)(=O)c1ccc(Oc2ccccc2Cl)cc1, which EC50 [6] is on record?
A: > 50 µM

Q: And the EC90 ([6]; Vero C1008, Maximum measured -0.734 %, Minimum measured -10.955 %)?
A: > 50 µM

Q: And the EC50 ([7]; Dengue virus, Vero C1008)?
A: 3.79 µM

Q: And the EC90 ([7]; Dengue virus, Vero C1008, EC90 CI (lower) 2.885 uM, EC90 CI (upper) 3.374 uM, Hill slope -11.236, Maximum measured 107.639 %, Minimum measured 0.022 %, R squared 0.991)?
A: 4.61 µM

Q: What about the EC50 [5] of the same compound?
A: > 1.9 µM

Q: With COc1cc(N[C@@H](C(=O)N2CCc3ccc(OC(F)(F)F)cc32)c2ccc(Cl)cc2)cc(OCCCC(=O)O)c1 as the compound, how does the EC50 ([1]; Zika virus, VeroE6/TMPRSS2) read?
A: > 10 µM

Q: And the EC90 ([1]; Zika virus, VeroE6/TMPRSS2, Maximum measured 96.7 %, Minimum measured 47.971 %, P-gp concentration 2 uM, P-gp inhibitor Elacidar)?
A: > 10 µM

Q: What about the EC90 ([1]; Zika virus, VeroE6/TMPRSS2, Maximum measured 158.114 %, Minimum measured 73.503 %, P-gp concentration 2 uM, P-gp inhibitor Elacidar) of the same compound?
A: > 10 µM

Q: And the EC90 ([1]; Zika virus, VeroE6/TMPRSS2, Baseline response 0 %, Hill slope -19.172, Maximum measured 90.933 %, Maximum response 60 %, Minimum measured 7.507 %, P-gp concentration 2 uM, R squared 0.342, P-gp inhibitor Elacidar)?
A: > 16.7 µM

Q: What about the EC50 ([1]; veroe6/tmprss2) of the same compound?
A: 15.1 µM

Q: And the EC90 ([2]; Hill slope 0.035, Maximum measured 8.614 %, Maximum response 100 %, Minimum measured 2.814 %, R squared 0.022)?
A: < 0.023 µM

Q: What about the EC90 ([2]; Hill slope -0.067, Maximum measured 2.038 %, Maximum response 100 %, Minimum measured 0.482 %, R squared 0.032) of the same compound?
A: < 0.005 µM

Q: And the EC90 ([2]; Hill slope -0.192, Maximum measured 3.988 %, Maximum response 100 %, Minimum measured 0.35 %, R squared 0.503)?
A: < 0.005 µM

Q: And the EC50 ([2]; veroe6/tmprss2)?
A: < 0.005 µM

Q: What about the EC50 [6] of the same compound?
A: > 6.25 µM

Q: What about the EC90 ([6]; Vero C1008, Baseline response 0 %, Hill slope 1.919, Maximum measured 39.533 %, Maximum response 100 %, Minimum measured 0.481 %, R squared 0.987) of the same compound?
A: > 6.25 µM

Q: What about the EC90 ([6]; Vero C1008, Baseline response 0 %, Hill slope 2.194, Maximum measured 37.889 %, Maximum response 100 %, Minimum measured -0.884 %, R squared 0.976) of the same compound?
A: > 6.25 µM

Q: And the EC90 ([6]; Vero C1008, Baseline response 0 %, Hill slope 2.262, Maximum measured 0.1 %, Maximum response 100 %, Minimum measured -2.404 %, R squared 0.714)?
A: > 6.25 µM

Q: What about the EC50 [8] of the same compound?
A: > 6.25 µM

Q: And the EC90 ([8]; Baseline response 0 %, Hill slope 1.255, Maximum measured 36.243 %, Maximum response 100 %, Minimum measured 3.426 %, P-gp concentration 500 nM, R squared 0.925, P-gp inhibitor CP100356)?
A: > 6.25 µM

Q: What about the EC90 ([7]; EC90 CI (lower) 26.978 uM, EC90 CI (upper) 1103.75 uM, Hill slope 1.671, Maximum measured 3.58 %, Minimum measured 0.058 %, R squared 0.662) of the same compound?
A: < 0.391 µM

Q: And the EC90 ([7]; Hill slope 0.149, Maximum measured 0.277 %, Minimum measured 0.08 %, R squared 0.031)?
A: < 0.391 µM

Q: What about the EC90 ([7]; Hill slope 0.294, Maximum measured 5.954 %, Minimum measured 0.022 %, R squared 0.035) of the same compound?
A: < 0.391 µM

Q: What about the EC50 ([7]; Dengue virus, Vero C1008) of the same compound?
A: < 0.391 µM

Q: What about the EC90 ([7]; Dengue virus, Vero C1008, Hill slope -0.103, Maximum measured 0.223 %, Minimum measured 0.035 %, R squared 0.026) of the same compound?
A: < 0.391 µM

Q: What about the EC50 [5] of the same compound?
A: < 0.01 µM
